Measured values from ChEMBL document CHEMBL1125264, “2'-Deoxy-2'-methylenecytidine and 2'-deoxy-2',2'-difluorocytidine 5'-diphosphates: potent mechanism-based inhibitors of ribonucleotide reductase” (J Med Chem, 1991).

How the values were obtained:
[1] = molecular target: Ribonucleoside-diphosphate reductase (Escherichia coli); assay: Compound was evaluated for time-dependent inactivation of Ribonucleotide diphosphate reductase (RDPR) in Escherichia coli
[2] = tested on: Ribonucleoside-diphosphate reductase (Escherichia coli); assay: Compound was evaluated for time-dependent inactivation of rRibonucleotide diphosphate reductase (RDPR) in Escherichia coli

SMILES: C=C1[C@H](n2ccc(=O)[nH]c2=O)O[C@H](COP(=O)(O)OP(=O)(O)O)[C@H]1O
- Ki [1]: 830 µM
- K inact [2]: 0.015 s⁻¹
